From patent publication US10555930B2, “Complex of a glucopyranosyl derivative and preparation method and use thereof” (SUNSHINE LAKE PHARMA CO., LTD., priority 2015, dated 2020) come the findings set out here.

Each structure is given as a SMILES string.

The target in data set [1] is T1, human SGLT-1 (Homo sapiens, UniProt P13866).
T1 construct: expressed in transfected cells; host or cells: CHO cells (Flp-in CHO)
T1 sequence (P13866 1-664): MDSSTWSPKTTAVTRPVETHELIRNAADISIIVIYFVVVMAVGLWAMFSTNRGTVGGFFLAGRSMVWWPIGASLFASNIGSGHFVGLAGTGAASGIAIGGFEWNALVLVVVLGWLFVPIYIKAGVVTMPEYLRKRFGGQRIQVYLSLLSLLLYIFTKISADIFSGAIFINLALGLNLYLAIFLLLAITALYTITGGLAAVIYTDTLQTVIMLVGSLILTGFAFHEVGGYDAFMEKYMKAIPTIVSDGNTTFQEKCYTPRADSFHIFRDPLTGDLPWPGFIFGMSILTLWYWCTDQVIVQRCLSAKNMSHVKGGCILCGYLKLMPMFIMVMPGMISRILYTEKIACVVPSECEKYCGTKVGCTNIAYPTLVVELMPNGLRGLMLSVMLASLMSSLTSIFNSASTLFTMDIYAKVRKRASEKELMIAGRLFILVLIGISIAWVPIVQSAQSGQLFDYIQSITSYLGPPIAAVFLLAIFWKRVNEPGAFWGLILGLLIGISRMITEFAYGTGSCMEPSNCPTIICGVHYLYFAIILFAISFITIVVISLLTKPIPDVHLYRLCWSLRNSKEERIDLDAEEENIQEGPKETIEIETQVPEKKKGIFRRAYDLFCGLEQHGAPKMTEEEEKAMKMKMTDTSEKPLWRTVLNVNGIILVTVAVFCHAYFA
Put plainly: Inhibitory activity against SGLT-1, [14C]-AMG uptake in CHO cells. The data set is classed as cell-based. As to conditions: CHO cells expressing human SGLT-1, [14C]-AMG. Here is the method:
(§1) The following method was used for detecting inhibitory activity of the compounds of the invention against SGLT-1 and SGLT-2.
(§2) 3×10^4 of FIP-in CHO cells transfected Mock and CHO cells expressing human SGLT-1/SGLT-2 gene were seeded into a 96-well cell culture plate; the cells were incubated for 12 hours, and then to each well was added 150 μL of Na-free buffer to wash the cells once; and then to each well were added 50 μL of Na buffer containing the compound at different concentrations and 0.5 μM [^14C]-AMG, and the plate was incubated in a incubator at 37° C. for 1 hour, the reaction was terminated by adding 150 μL of pre-cooled Na-free buffer; the cells were further washed with Na-free buffer 3 times and the residual liquid was removed; to each well was added 20 μL of pre-cooled NaOH ([…]), the plate was vibrated at 900 rpm for 5 min; and then to each well was added 80 μL of scintillation solution, the plate was vibrated at 600 rpm for 5 min; the plate was analyzed on liquid scintillation counter.

Data set [2] can be described thus: Measurement of stability (high-temperature, high-humidity and photostability tests; HPLC impurity content). The note with it: for total impurity / purity: 210 nm. The data set is classed as physicochemical. Here is the method:
An appropriate amount of the Complex (IA) sample (prepared from example 2) was weighed and tiled on a clean culture dish at a thickness of ≤5 mm, and analyzed under the following conditions:
The test sample was placed under a high temperature condition (60±2° C.) for 10 d, the relative indexes were measured at the fifth and tenth days. […] If no significant change, the test at 40° C. was not necessary.
The test sample was placed under a 25° C. and RH 90%±5% condition for 10 d, and the sample were measured at the fifth and tenth days. Test items should include a moisture-absorption weight gain. If weighting percentage of moisture absorption was more than 5%, the test should be carried out under a 25° C. and RH 75%±5% condition using the same method; If weighting percentage of moisture absorption was less than 5%, and other inspection items met the requirements, the test was not necessary. The constant humidity condition can be realized by adopting constant temperature humidity chamber or placing a saturated saline solution under a closed container. […]
The test sample was placed in light box or other suitable light vessel under a 4500 Lx±500 Lx of illuminance condition for 10 d, and the sample were measured at the fifth and tenth days.
The impurity content of the sample was calculated by the normalization method of peak area using an HPLC chromatographic instrument under the above condition, the analytic conditions were shown below:
The detection was performed on Agilent 1200DAD high pressure liquid chromatography spectrometer (Zorbax Eclipse Plus C18 150×4.6 mm chromatographic column).
The test condition of HPLC: the run time was 30 minutes (min); the column temperature was 35° C.; the detection was carried out at the wavelength of 210 nm and 225 nm;
Mobile phase: phase C: acetonitrile phase D: ultrapure water flow rate: 1.0 mL/min.
Gradient elution, the ratio of mobile phase was shown as table B.

Data set [3] deals with T2, human SGLT-2 (Homo sapiens, UniProt P31639).
T2 construct: expressed in transfected cells; host or cells: CHO cells (Flp-in CHO)
T2 sequence (P31639 1-672): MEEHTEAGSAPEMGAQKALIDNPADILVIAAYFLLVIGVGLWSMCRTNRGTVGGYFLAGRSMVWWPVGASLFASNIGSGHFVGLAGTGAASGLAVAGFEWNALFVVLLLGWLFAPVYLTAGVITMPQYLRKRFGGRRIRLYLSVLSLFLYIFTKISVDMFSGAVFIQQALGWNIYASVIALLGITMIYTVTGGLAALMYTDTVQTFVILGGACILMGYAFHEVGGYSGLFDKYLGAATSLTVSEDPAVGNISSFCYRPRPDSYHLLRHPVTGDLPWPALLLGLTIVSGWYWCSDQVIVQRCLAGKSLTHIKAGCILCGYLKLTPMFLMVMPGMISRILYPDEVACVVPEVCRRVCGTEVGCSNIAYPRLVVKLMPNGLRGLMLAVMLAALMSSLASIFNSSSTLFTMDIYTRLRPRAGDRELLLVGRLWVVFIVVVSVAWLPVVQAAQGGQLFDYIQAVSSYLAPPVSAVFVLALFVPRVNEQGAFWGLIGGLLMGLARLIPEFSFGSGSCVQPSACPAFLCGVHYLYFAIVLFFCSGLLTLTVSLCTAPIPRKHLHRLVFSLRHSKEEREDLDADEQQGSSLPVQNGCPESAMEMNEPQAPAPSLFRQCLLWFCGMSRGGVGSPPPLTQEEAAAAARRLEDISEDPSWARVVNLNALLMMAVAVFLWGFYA
Put plainly: Inhibitory activity against SGLT-2, [14C]-AMG uptake in CHO cells. The data set is classed as cell-based. Here is the method:
as §1, §2

Setting [4] is: high humidity (25° C., RH 90%±5%), 5 d, HPLC.
[5] abbreviates: high humidity (25° C., RH 90%±5%), 10 d, HPLC.
The mark [6] stands for this setting: high-temperature (60±2° C.), 5 d, HPLC.
The mark [7] stands for this setting: high-temperature (60±2° C.), 10 d, HPLC.
Where [8] appears, read: illumination (4500 Lx±500 Lx), 5 d, HPLC.
The mark [9] stands for this setting: illumination (4500 Lx±500 Lx), 10 d, HPLC.

With `CCOc1ccc(Cc2cc([C@]34OC[C@]([C@@H](C)O)(O3)[C@@H](O)[C@H](O)[C@H]4O)ccc2Cl)cc1` [Complex (IA), Complex (IA) of (1R,2S,3S,4R,5S)-5-(4-chloro-3-(4-ethoxybenzyl)phenyl)-1-((1R)-1-hydroxyethyl)-6,8-dioxabicyclo[3.2.1]octane-2,3,4-triol (I-n) and L-pyroglutamic acid], the SGLT-1 inhibitory activity entry in data set [1] is “has SGLT-2 and SGLT-1 inhibitory activity”. Besides, the total impurity in data set [2] (0 d, HPLC peak area normalization) was determined as 0.15%; in data set [2] (setting [4]) it was 0.15%; in data set [2] (setting [5]), 0.19%; in data set [2] (setting [6]), 0.17%; in data set [2] (setting [7]), 0.19%; in data set [2] (setting [8]) it was 0.17%. Moreover, the total impurity in data set [2] (setting [9]) came out at 0.22%. The purity in data set [2] (0 d, HPLC) amounted to 99.85%; in data set [2] (setting [4]), 99.85%; in data set [2] (setting [5]), 99.81%; in data set [2] (setting [6]), 99.83%; in data set [2] (setting [7]) it was 99.81%; in data set [2] (setting [8]), 99.83%. This compound returned a purity in data set [2] (setting [9]) of 99.78%. In addition, the “stability (summary in words)” value in data set [2] (high-temperature, high humidity or illumination for 10 d) is given as “good stability”. Further, the SGLT-2 inhibitory activity result in data set [3] (CHO cells expressing human SGLT-2, [14C]-AMG) is “has SGLT-2 and SGLT-1 inhibitory activity”. The “inhibitory activity to SGLT-2 compared with SGLT-1” value in data set [3] (SGLT-2 versus SGLT-1) is on record as “the inhibitory activity to SGLT-2 is much more stronger than that to SGLT-1”.
